Broadly, the half-life is how long it takes for the measured level to halve.

Experimental findings from ChEMBL document CHEMBL5036377, “Improved Metabolically Stable 5-HT Receptor Modulators and the Development of New Antidepressants” (ACS Med Chem Lett, 2022) are described below.

Data set [1] in a line: Stability in rat brain homogenate assessed as compound remaining measured after 120 mins. To be noted: read-out: Stability. The class given is ADME, tissue-based.
Data set [2] in a line: Stability in rat brain homogenate assessed as half life. In kind it is ADME, tissue-based.
A short description of data set [3]: Stability in human liver mitochondria assessed as compound remaining in presence of MAO-A and MAO-B measured after 60 mins. The class given is ADME. To be noted: read-out: Stability.

Regarding `CN(C)CCc1c[nH]c2ccccc12`, the remaining at 2 h in data set [1] worked out at 0%. The half-life in data set [2] was 0.085 h. Moreover, the remaining at 1 h in data set [3] was 8.9%.

For `COc1ccc2[nH]cc(CCN3CCC3)c2c1`, in data set [1], the remaining at 2 h worked out at 98%. Further, the half-life in data set [2] is over 4.82 h. The remaining at 1 h in data set [3] came out at 106%.

Regarding `Oc1cccc2[nH]cc(CCN3CCC3)c12`, in data set [1], the remaining at 2 h was 56.8%. Moreover, the half-life in data set [2] turned out to be 2.91 h. In addition, in data set [3], the remaining at 1 h came out at 88.2%.

As to `c1ccc2c(CCN3CCC3)c[nH]c2c1`, the remaining at 2 h in data set [1] came to 91.9%. The half-life in data set [2] was over 4.82 h. Also, in data set [3], the remaining at 1 h was determined as 85.2%.

As for `COc1ccc2[nH]cc(CCN(C)C)c2c1` [MEBUFOTENIN], in data set [1], the remaining at 2 h was determined as 0.3%. The half-life in data set [2] came out at 0.24 h. Further, the remaining at 1 h in data set [3] was found to be 47.1%.

`CN(C)CCc1c[nH]c2cccc(O)c12` [PSILOCIN]: the remaining at 2 h in data set [1] amounted to 46.1%. Besides, in data set [2], the half-life was determined as 1.91 h. For the same compound, the remaining at 1 h in data set [3] came to 112%.
